Data reported in patent US20250049751A1, “L-THEANINE AND TETRAHYDROCANNABINOL FORMULATION” (priority 2018, published 2025).
“Also recorded” adds a separate entry of the source.

Columns and labels:
rats [1] = assay: Paired-pulse (prepulse) inhibition test for cognitive filtering deficits; type: in vivo, rat; conditions: L-Theanine 10 mg/kg; for prepulse inhibition / sensory filtering: both 30 and 100 msec between pre-pulse and test pulse, 10 days twice daily i.p. THC 2.5-10 mg/kg, relative to vehicle control rats, FIG. 1
Procedure: (§1) Four groups of ten rats were studied. The first group of rats was given twice daily intra-peritoneal doses of THC. The dosage regime was as follows
(§2) Immediately preceding each dose of THC, each rat was dosed with 10 mg/kg L-Theanine, administered intra-peritoneally.
(§3) The second group of rats was given the same doses of THC and no L-Theanine.
(§4) The third group of rats was given twice daily doses of L-Theanine but no THC.
(§5) The fourth group of rats was given neither THC nor L-Theanine.
(§6) All groups of rats were fed, watered and otherwise housed identically. At the end of the 10 day period, the rats were subject to a serious of tests.
Rats were acclimatized to the startle chambers (Med Associates) for 5 min over 3 days. On the last day of acclimation, rats were tested in an input/output (I/O) function consisting of 12 increasing startle pulses (from 65 to 120 dB, 5 dB increments) to determine the appropriate gain setting for each individual rat. The testing procedure consisted of the following phases: the acclimation phase, a habituation phase (Block 1), and PPI measurement (Block 2). During acclimation, rats were exposed to the chambers and white background noise (68 dB) for 5 min. During Block 1, 10 pulse alone trials (110 dB white noise, 20 ms duration) were delivered at 15-20 s inter-trial intervals. Block 2 consisted of […] presented 10 times in a pseudo-randomized order at 15-20 s intervals: 10 pulse-alone trials, and 10 of each of the three different prepulse-pulse trial types (72, 76, 80) with interstimulus intervals of 30 and 100 ms. Pulse-alone trials consisted of a startle stimulus-only presentation, whereas prepulse-pulse trials consisted of the presentation of a weaker non-startling prepulse (white noise, 20 ms duration) before the startling stimulus. PPI was calculated for each animal and each trial condition as PPI (%)=(1-average startle amplitude to pulse with prepulse/average startle amplitude to pulse only)×100.

rats [2] = assay: Sucrose preference testing for depression/anhedonia symptoms; type: in vivo, rat; conditions: 2% sucrose vs. plain water, chronic THC 10 days twice daily i.p., L-Theanine 10 mg/kg, FIG. 2
Procedure: as §1, §2, §3, §4, §5, §6
Rats were water-restricted for 12 hrs prior to being given a 2-bottle choice test between a solution containing 2% sucrose vs. plain water. The amounts consumed from each bottle were measured over 24 hr for 4 days. A sucrose preference index was calculated for each rat and averaged across groups by taking the percentage of the volume of sucrose intake over the total volume of fluid intake over […].

rats [3] = assay: Novel object memory test (Novel Object Recognition); type: in vivo, rat; conditions: 60 min delay, chronic THC 10 days twice daily i.p., L-Theanine 10 mg/kg, FIG. 3
Procedure: as §1, §2, §3, §4, §5, §6
The test sessions consisted of two 3-min trials. During the first trial (T1 acquisition trial), each rat was placed in the center of an arena containing two identical objects placed in the far corners 15 cm from the side wall. […] Times spent in exploration were videotaped with a video-tracking system (ANY-maze; Stoelting) and analyzed by an experimenter blind to the treatment conditions. Exploration times were recorded and used to calculate object recognition index [time spent with novel object/total time exploring both objects]

[4] = tested on: single dopamine neurons in the ventral tegmental area; assay: In vivo single-unit electrophysiology recordings in the VTA; set-up: species or system rat; conditions: rats; chronic THC exposure, L-Theanine 10 mg/kg; FIG. 4
Procedure: as §1, §2, §3, §4, §5, §6
(§7) Extracellular single-unit electrophysiological recordings were performed in vivo in adult (>PND 75) pretreated rats during adolescence. The recordings were taken from either putative glutamatergic (GLUT) PFC neurons or dopaminergic (DA) VTA neurons. Rats were anesthetized with urethane (1.4 g/kg, i.p., Sigma-Aldrich) and placed in a stereotaxic frame with body temperature maintained at 37° C. […] Extracellular signals were amplified (×5000) using a MultiClamp 700B amplifier (Molecular Devices), digitized at 25 kHz and recorded on the computer using a Digidata 1440 A and pClamp software (Molecular Devices). […]

[5] = tested on: single neurons of the prefrontal cortex (PFC); assay: In vivo single-unit electrophysiology recordings in the PFC (burst testing); set-up: species or system rat; conditions: rats; chronic THC exposure, L-Theanine 10 mg/kg; FIG. 5
Procedure: as §1, §2, §3, §4, §5, §6
as §7, with “neurons.” for “neurons. Rats were anesthetized with urethane (1.4 g/kg, i.p., Sigma-Aldrich) and placed in a stereotaxic frame with body temperature maintained at 37° C.”
Putative mPFC pyramidal cells were identified based on established criteria85: (1) firing frequency <10 Hz, (2) waveform shape, and (3) action potential duration >2.5 ms. […] After an individual putative pyramidal neuron was isolated, its spontaneous activity was recorded for 5 min. […]

[6] = tested on: gamma-band activity in the rat prefrontal cortex; assay: Local field potential recordings in prefrontal cortex (normalized power testing); type: in vivo; conditions: chronic THC exposure, L-Theanine 10 mg/kg, 0-100 Hz range
Procedure: as §1, §2, §3, §4, §5, §6, §7

[7] = tested on: glycogen-synthase-kinase-3A; assay: Western Blot of GSK-3α protein expression; type: in vivo, rat; conditions: rats, chronic THC exposure, L-Theanine 10 mg/kg
Procedure: (§8) FIG. 7. […] These molecular signaling effects are prevented by co-administration with L-Theanine (10 mg/kg), as measured in a Western Blot procedure.
as §1, §2, §3, §4, §5, §6

[8] = tested on: glycogen-synthase-kinase-3B; assay: Western Blot of GSK-3β protein expression; type: in vivo, rat; conditions: rats, chronic THC exposure, L-Theanine 10 mg/kg
Procedure: as §8, §1, §2, §3, §4, §5, §6

[9] = tested on: Akt (protein kinase B) threanine308; assay: Protein expression of Akt308 in prefrontal cortex; type: in vivo; conditions: prefrontal cortex of rat brain; chronic THC, L-Theanine 10 mg/kg; FIG. 8
Procedure: FIG. 8. […] This effect is prevented by L-Theanine (10 mg/kg) co-administration.
as §1, §2, §3, §4, §5, §6

Akt at serine 473 = assay: Protein expression of Akt at serine 473 in prefrontal cortex; type: in vivo; conditions: prefrontal cortex of rat brain; chronic THC, L-Theanine 10 mg/kg; FIG. 8

| Structure (SMILES) | prepulse inhibition / sensory filtering (rats [1]) | sucrose preference (anhedonic, depression-like effects) (rats [2]) | object recognition (object memory) (rats [3]) | sensorimotor filtering (paired-pulse-inhibition) (rats [1]; 30 msec stimulus intervals, 72 and 84 decibel stimulus intensities, FIG. 1A) | sensorimotor filtering (paired-pulse-inhibition) (rats [1]; 100 msec stimulus intervals, 72, 76 and 80 decibel stimulus intensities, FIG. 1B) | activity rates of single dopamine neurons in the ventral tegmental area [4] | bursting pattern activity of single neurons of the prefrontal cortex [5] | gamma-band activity (local field potentials, normalized power) ([6]; FIG. 6) | gamma-band activity (local field potentials, normalized power) ([6]; FIG. 6, listed as THC only) | protein expression levels of GSK-3α ([7]; FIG. 7) | protein expression levels of GSK-3α ([7]; FIG. 7, listed as THC-alone) | protein expression levels of GSK-3β ([8]; FIG. 7) | protein expression levels of GSK-3β ([8]; FIG. 7, listed as THC-alone) | protein expression levels of Akt308 [9] | effect on Akt at serine 473 (Akt at serine 473) |
| --- | --- | --- | --- | --- | --- | --- | --- | --- | --- | --- | --- | --- | --- | --- | --- |
| CCNC(=O)CC[C@H](N)C(=O)O [L-Theanine] | no apparent effects on sensory filtering | no apparent effects on sucrose preference | no apparent effects on object recognition | – | – | – | – | – | – | – | – | – | – | – | – |
| CCCCCc1cc(O)c2c(c1)OC(C)(C)[C@@H]1CCC(C)=C[C@@H]21 [THC, Δ-9-tetrahydrocannabinol] | strong deficits in the prepulse inhibition | anhedonic (depression-like) effects; also recorded: strong sucrose preference reduction | significant object memory impairment; also recorded: strong reductions in object recognition | disruption of sensorimotor filtering | disruption of sensorimotor filtering | hyperactive activity rates | hyperactive ‘bursting’ pattern activity state; also recorded: neuronal hyperactivity | significant decrease in gamma-band activity states | generally decreased activity | significant loss in the protein expression levels | significant decrease | significant loss in the protein expression levels | significant decrease | significant downregulation in protein expression levels of Akt308 | no effect |
